# From paper PMC4601023, “Novel anticancer agent, SQAP, binds to focal adhesion kinase and modulates its activity” (Scientific Reports, 2015)
# How the values were obtained:
# [1] = target: T1, HR23B (Homo sapiens, UniProt P54727); test: SPR analysis, immobilized GST-HR23B (GST control subtracted); type: binding; conditions: no kinetic analysis
# T1 construct: ADRM1 and HR23B human full length proteins were purchased; purchased Abnova (Taipei, Taiwan)
# From the text: SPR was utilized as an independent confirmation of the kinetic parameters between SQAP and the putative binding proteins. […] The recombinant proteins were then expressed in Escherichia coli and purified to homogeneity. In addition, full length, His-tagged ADRM1 and GST-tagged HR23B (GST-HR23B) were also used. The proteins were first immobilized on a CM5 sensor chip of the SPR biosensor (Biacore 3000). For GST-HR23B analysis, a GST protein was additionally immobilized and used as a control in order to eliminate possible nonspecific binding of SQAP. SQAP samples at different concentrations were then injected over the proteins immobilized on the sensor chip. As a negative control we used sulfoquynovosylpropanediol (SQP), which lacks the fatty acid moiety of SQAP (Fig. 1). […]
# The binding kinetics of SCP-2, MFE-2, ADRM1, HR23B and FAK with SQAP and SQP were analyzed on a Biacore 3000 instrument (GE Healthcare, Little Chalfont, UK). […] The buffer of purified peptides was exchanged to HBS-P (150 mM NaCl, 0.005% Surfactant P20, 10 mM HEPES-NaOH pH 7.4) using a PD 10 column (GE Healthcare, Little Chalfont, UK) and the concentrations were quantified using DC protein assay kit (Bio-Rad Laboratories, Hercules, CA, USA). […] Kinetic parameters were determined by analyzing the data using BIAevaluation 4.1 software (GE Healthcare, Little Chalfont, UK).
# [2] = target: VEGF (Homo sapiens, UniProt P15692); test: SPR analysis of SQAP-VEGF interaction; type: binding; conditions: data not shown
# Sequence of VEGF (P15692 whole entry, species assumed, the tested form may be a part): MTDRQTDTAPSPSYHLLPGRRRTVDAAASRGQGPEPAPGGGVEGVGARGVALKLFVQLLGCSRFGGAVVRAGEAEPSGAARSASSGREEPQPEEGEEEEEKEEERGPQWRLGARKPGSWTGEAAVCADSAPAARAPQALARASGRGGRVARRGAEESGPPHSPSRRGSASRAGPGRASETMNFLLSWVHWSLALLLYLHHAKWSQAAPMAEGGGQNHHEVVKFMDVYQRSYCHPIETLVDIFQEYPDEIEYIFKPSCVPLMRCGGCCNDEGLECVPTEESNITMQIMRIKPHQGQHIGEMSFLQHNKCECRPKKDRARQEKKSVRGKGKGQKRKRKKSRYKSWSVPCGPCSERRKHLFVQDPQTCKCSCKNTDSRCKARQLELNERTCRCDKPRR
# From the text: The phosphorylation of FAK in response to VEGF plays an important role in the regulation of endothelial cell migration during angiogenesis. Therefore we hypothesized that SQAP activity could potentially be mediated through binding to FAK. […] In this region, FAK interacts with paxillin through FAT domain and becomes autophosphorylated on Y397[29][30]. Y397 is an autophosphorylation site which is crucial for FAK activity and has been related to apoptosis and tumor growth. FAK is also phosphorylated at Y925, leading to the regulation of adhesion turnover and cell motility. Thus we chose to study the FAK phosphorylation on Y397 and Y925 residues. Initially, we examined whether SQAP affected phosphorylation of FAK in HUVEC cells stimulated with VEGF in the presence or absence of SQAP. […] Since SQMG was previously reported to bind to VEGF[34], we could not rule out the possibility of a binding between SQAP and VEGF so we analyzed this interaction by SPR. […] Therefore, we investigated whether SQAP could inhibit FAK phosphorylation independently of VEGF. We analyzed FAK phosphorylation in the absence of VEGF and observed that SQAP inhibited the phosphorylation of FAK signal within 1 h in a VEGF independent manner (Fig. 5B). Additionally, we treated HUVEC with VEGF in the presence of SQMG and SQP.
# [3] = tested on: Akt phosphorylation at S473 in HUVEC; test: Akt phosphorylation in HUVEC, Western blotting; type: cell-based, human; conditions: treated for 21 h, 10 µM
# From the text: Furthermore, we looked at FAK signaling pathway to validate our results. Paxillin binds to FAK 919–938 residues which is a sequence contained within the region where SQAP is predicted to bind. Binding between paxillin and FAK results in paxillin phosphorylation at Y118[35][36]. Thus, we examined paxillin phosphorylation. […] Additionally, we studied Akt phosphorylation at S473 on account of FAK is a known factor in control of Akt activity. We observed that Akt phosphorylation was diminished when treated with SQAP or SQMG for 21 h (see Supplementary Fig. S3).
# Cells were harvested and solubilized in RIPA buffer (20 mM Tris-HCl, pH 7.5, 1% Sodium deoxycholate, 150 mM NaCl, 5 mM EDTA, 1% Triton X-100, 0.1% SDS, 0.1%, 1 mM PMSF, 1 mM vanadate and 1 μg/mL leupeptin). Protein quantification was determined using the DC protein assay kit (Bio-Rad, Hercules, CA, USA). A total of 15 μg of each protein sample were separated by SDS–PAGE gels and blotted onto polyvinylidene difluoride membranes (Merck, Kenilworth, NJ, US). After blocking for 1 h with Blocking-One (Nacalai Tesque, Kyoto, Japan), proteins were detected by incubating the membranes with the primary antibody at 4 °C overnight (anti-Y397 2:2000, anti-Y925 5:2000 and anti-FAK 0.5:2000) followed by incubation with horseradish peroxidase-conjugated secondary antibodies at room temperature for 1 h (anti-mouse 0.5:2000 and anti-rabbit 0.4:2000). […]
# [4] = tested on: Akt phosphorylation at S473 in A549; test: Akt phosphorylation in A549, Western blotting; type: cell-based, human; conditions: A549, fibronectin, 1 h treatment
# Method: Fibronectin is a glycoprotein located in the extracellular matrix that binds to integrins. […] A549 lung cancer cells have been used before for studying cell migration because of their metastatic model potential. A549 cells are also one of the tumor cell lines sensitive to SQMG[9]. Therefore, we studied the phosphorylation of FAK in A549 cells (Fig. 5C,D). SQAP could inhibit the phosphorylation of FAK at Y397 and Y925 after 1 h treatment in a dose dependent manner. […] We also examined paxillin and Akt phosphorylation in A549 as downstream targets of FAK. […] We hypothesize that SQAP diminish on Akt phosphorylation being more readily in A549 cancer cells than in HUVEC endothelial cells might be due to a higher Akt basal activity on cancer cells.
# Cells were harvested and solubilized in RIPA buffer (20 mM Tris-HCl, pH 7.5, 1% Sodium deoxycholate, 150 mM NaCl, 5 mM EDTA, 1% Triton X-100, 0.1% SDS, 0.1%, 1 mM PMSF, 1 mM vanadate and 1 μg/mL leupeptin). Protein quantification was determined using the DC protein assay kit (Bio-Rad, Hercules, CA, USA). A total of 15 μg of each protein sample were separated by SDS–PAGE gels and blotted onto polyvinylidene difluoride membranes (Merck, Kenilworth, NJ, US). […]
# T1 sequence (P54727 whole entry): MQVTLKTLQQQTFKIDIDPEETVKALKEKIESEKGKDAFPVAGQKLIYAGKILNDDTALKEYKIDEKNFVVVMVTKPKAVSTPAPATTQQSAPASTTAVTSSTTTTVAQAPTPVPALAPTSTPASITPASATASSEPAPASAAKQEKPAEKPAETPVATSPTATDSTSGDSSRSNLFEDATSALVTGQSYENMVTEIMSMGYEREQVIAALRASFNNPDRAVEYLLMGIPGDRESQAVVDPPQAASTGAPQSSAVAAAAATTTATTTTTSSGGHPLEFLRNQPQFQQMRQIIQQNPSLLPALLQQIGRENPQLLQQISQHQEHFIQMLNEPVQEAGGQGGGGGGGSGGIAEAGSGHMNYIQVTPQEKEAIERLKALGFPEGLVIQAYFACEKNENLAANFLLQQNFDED
smiles,measurement,setting,value
"CCCCCCCCCCCCCCCCCC(=O)OCCCO[C@H]1O[C@H](CS(=O)(=O)O)[C@@H](O)[C@H](O)[C@H]1O [SQAP, sulfoquynovosylacylpropanediol]",binding to HR23B (SPR response),[1],specific binding response of SQAP in a dose-dependent manner
same,binding to VEGF (SPR),[2],did bind
same,Akt phosphorylation at S473,[3],diminished
same,Akt phosphorylation at S473,[4],clearly downregulated
